Patent US6355799B1, “Substituted benzene compounds, process for their preparation, and herbicidal and defoliant compositions containing them” (ISK Americas Incorporated, priority 1997, dated 2002)

Legend:
Assay type in all cases: in vivo
[1] = tested on: redroot pigweed (Amaranthus retroflexus, AMARE); assay: Post-emerge test, greenhouse herbicide activity screening; conditions: 14 days after application
How it was run: (§1)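 Compounds in acetone were track-sprayed at 15-1000 g ai/ha (187 l/ha) on sandy loam pots: pre-emerge one day after seeding, post-emerge at 2-3 leaf stage with 0.25% v/v non-ionic surfactant. Phytotoxicity was rated 14 days later on a 0 (no damage) to 100 (complete death) scale.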

[2] = tested on: ivyleaf morningglory (Ipomoea hederacea, IPOHE); assay: as above; conditions: 14 days after application; for Post-emerge Herbicidal Activity IPOHE (phytotoxicity rating): rating scale 0-100; for Post-emerge Herbicidal Activity, phytotoxicity rating IPOHE: rating scale 0-100 (0 no damage, 100 complete death)
How it was run: as §1

[3] = tested on: sicklepod (Cassia obtusifolia, CASOB); assay: as above; conditions: 14 days after application; for Post-emerge Herbicidal Activity CASOB (phytotoxicity rating): rating scale 0-100; for Post-emerge Herbicidal Activity, phytotoxicity rating CASOB: rating scale 0-100 (0 no damage, 100 complete death)
How it was run: as §1

[4] = tested on: large crabgrass (Digitaria sanguinalis, DIGSA); assay: as above; conditions: 14 days after application; for Post-emerge Herbicidal Activity DIGSA (phytotoxicity rating): rating scale 0-100; for Post-emerge Herbicidal Activity, phytotoxicity rating DIGSA: rating scale 0-100 (0 no damage, 100 complete death)
How it was run: as §1

[5] = tested on: barnyardgrass (Echinochloa crus-galli, ECHCG); assay: as above; conditions: 14 days after application; for Post-emerge Herbicidal Activity ECHCG (phytotoxicity rating): rating scale 0-100; for Post-emerge Herbicidal Activity, phytotoxicity rating ECHCG: rating scale 0-100 (0 no damage, 100 complete death)
How it was run: as §1

[6] = tested on: green foxtail (Setaria viridis, SETVI); assay: as above; conditions: 14 days after application; for Post-emerge Herbicidal Activity SETVI (phytotoxicity rating): rating scale 0-100; for Post-emerge Herbicidal Activity, phytotoxicity rating SETVI: rating scale 0-100 (0 no damage, 100 complete death)
How it was run: as §1

[7] = tested on: lambsquarters (Chenopodium album, CHEAL); assay: as above; conditions: 14 days after application; for Post-emerge Herbicidal Activity CHEAL (phytotoxicity rating): rating scale 0-100; for Post-emerge Herbicidal Activity, phytotoxicity rating CHEAL: rating scale 0-100 (0 no damage, 100 complete death)
How it was run: as §1

[8] = tested on: velvetleaf (Abutilon theophrasti, ABUTH); assay: as above; conditions: 14 days after application; for Post-emerge Herbicidal Activity ABUTH (phytotoxicity rating): rating scale 0-100; for Post-emerge Herbicidal Activity, phytotoxicity rating ABUTH: rating scale 0-100 (0 no damage, 100 complete death)
How it was run: as §1

[9] = tested on: johnsongrass (Sorghum halepense, SORHA); assay: as above; conditions: rating scale 0-100 (0 no damage, 100 complete death), 14 days after application
How it was run: as §1

[10] = tested on: common ragweed (Ambrosia artemisizfolia L., AMBEL); assay: as above; conditions: post-emerge, 14 days after application, rating scale 0-100
How it was run: as §1

[11] = tested on: field corn (Zea mays L., var. Dekalb 535, CORN); assay: Pre-emerge test, crop safety; conditions: rating scale 0-100, 14 days after application
How it was run: (§2)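 Applied at 15–1000 g ai/ha from acetone in 187 l/ha spray volume. Post-emergence applications included 0.25% v/v non-ionic surfactant and reached plants sown 8–21 days before. Pre-emergence applications were incorporated by surface watering. Efficacy or crop damage was rated on a 0–100 scale after 14 days.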

[12] = tested on: upland rice (Oryza sp., var. Tebonnet, RICE); assay: Pre-emerge test, crop safety; conditions: rating scale 0-100, 14 days after application
How it was run: as §2

[13] = tested on: field corn (Zea mays L., var. Dekalb 535, CORN); assay: Post-emerge test, crop safety; conditions: 14 days after application; for Post-emerge Herbicidal Activity CORN (crop damage rating): rating scale 0-100; for Post-emerge phytotoxicity rating CORN (crop damage): rating scale 0-100 (0 no damage, 100 complete death)
How it was run: (§3)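 Compounds in acetone were track-sprayed at 187 l/ha, 15–1000 g ai/ha, onto sandy loam pots. Pre-emerge seeds were sown one day before spraying, with surface watering afterwards. Post-emerge plants were at the 2–3 leaf stage and sprayed with 0.25% v/v non-ionic surfactant. Injury was rated 0–100 at 14 days.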

[14] = tested on: upland rice (Oryza sp., var. Tebonnet, RICE); assay: Post-emerge test, crop safety; conditions: 14 days after application; for Post-emerge Herbicidal Activity RICE (crop damage rating): rating scale 0-100; for Post-emerge phytotoxicity rating RICE (crop damage): rating scale 0-100 (0 no damage, 100 complete death)
How it was run: as §3

[15] = tested on: ivyleaf morningglory (Ipomoea hederacea, IPOHE); assay: Pre-emerge test, greenhouse herbicide activity screening; conditions: rating scale 0-100, 14 days after application
How it was run: as §3

[16] = tested on: sicklepod (Cassia obtusifolia, CASOB); assay: as above; conditions: rating scale 0-100, 14 days after application
How it was run: as §3

[17] = tested on: large crabgrass (Digitaria sanguinalis, DIGSA); assay: as above; conditions: rating scale 0-100, 14 days after application
How it was run: as §3

[18] = tested on: barnyardgrass (Echinochloa crus-galli, ECHCG); assay: as above; conditions: rating scale 0-100, 14 days after application
How it was run: as §3

[19] = tested on: green foxtail (Setaria viridis, SETVI); assay: as above; conditions: rating scale 0-100, 14 days after application
How it was run: as §3

[20] = tested on: lambsquarters (Chenopodium album, CHEAL); assay: as above; conditions: rating scale 0-100, 14 days after application
How it was run: as §3

[21] = tested on: velvetleaf (Abutilon theophrasti, ABUTH); assay: as above; conditions: rating scale 0-100, 14 days after application
How it was run: as §3

[22] = tested on: johnsongrass (Sorghum halepense, SORHA); assay: as above; conditions: rating scale 0-100, 14 days after application
How it was run: as §3

[23] = tested on: redroot pigweed (Amaranthus retroflexus, AMARE); assay: as above; conditions: rating scale 0-100, 14 days after application
How it was run: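 Rating: 0–100 visual injury, 14 DAA. Application: acetone, 187 l/ha, 15–1000 g ai/ha, flat-fan track sprayer with nozzle 40–45 cm above soil or canopy. Post-emerge runs used 0.25% v/v surfactant on 2–3 leaf plants.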

C#CCOC(=O)C(C)(Cl)Cc1c(OC)c(Cl)cc(F)c1-n1c(=O)cc(C(F)(F)F)n(C)c1=O (stereo not drawn) [14-44]
Post-emerge Herbicidal Activity AMARE (phytotoxicity rating) ([1]; 63 g ai/ha, rating scale 0-100 (0 no damage, 100 complete death)): 100 | Post-emerge Herbicidal Activity AMARE (phytotoxicity rating) ([1]; 250 g ai/ha, rating scale 0-100): 100 | Post-emerge Herbicidal Activity, phytotoxicity rating AMARE ([1]; Rate 63 g ai/ha, rating scale 0-100 (0 no damage, 100 complete death)): 100 | Post-emerge Herbicidal Activity, phytotoxicity rating AMARE ([1]; Rate 250 g ai/ha, rating scale 0-100 (0 no damage, 100 complete death)): 100 | Post-emerge Herbicidal Activity IPOHE (phytotoxicity rating) ([2]; 63 g ai/ha): 30 | Post-emerge Herbicidal Activity IPOHE (phytotoxicity rating) ([2]; 250 g ai/ha): 80 | Post-emerge Herbicidal Activity, phytotoxicity rating IPOHE ([2]; Rate 63 g ai/ha): 50 | Post-emerge Herbicidal Activity, phytotoxicity rating IPOHE ([2]; Rate 250 g ai/ha): 90 | Post-emerge Herbicidal Activity CASOB (phytotoxicity rating) ([3]; 63 g ai/ha): 10 | Post-emerge Herbicidal Activity CASOB (phytotoxicity rating) ([3]; 250 g ai/ha): 20 | Post-emerge Herbicidal Activity, phytotoxicity rating CASOB ([3]; Rate 63 g ai/ha): 0 | Post-emerge Herbicidal Activity, phytotoxicity rating CASOB ([3]; Rate 250 g ai/ha): 0 | Post-emerge Herbicidal Activity DIGSA (phytotoxicity rating) ([4]; 63 g ai/ha): 40 | Post-emerge Herbicidal Activity DIGSA (phytotoxicity rating) ([4]; 250 g ai/ha): 99 | Post-emerge Herbicidal Activity, phytotoxicity rating DIGSA ([4]; Rate 63 g ai/ha): 100 | Post-emerge Herbicidal Activity, phytotoxicity rating DIGSA ([4]; Rate 250 g ai/ha): 100 | Post-emerge Herbicidal Activity ECHCG (phytotoxicity rating) ([5]; 63 g ai/ha): 100 | Post-emerge Herbicidal Activity ECHCG (phytotoxicity rating) ([5]; 250 g ai/ha): 100 | Post-emerge Herbicidal Activity, phytotoxicity rating ECHCG ([5]; Rate 63 g ai/ha): 100 | Post-emerge Herbicidal Activity, phytotoxicity rating ECHCG ([5]; Rate 250 g ai/ha): 100 | Post-emerge Herbicidal Activity SETVI (phytotoxicity rating) ([6]; 63 g ai/ha): 30 | Post-emerge Herbicidal Activity SETVI (phytotoxicity rating) ([6]; 250 g ai/ha): 70 | Post-emerge Herbicidal Activity, phytotoxicity rating SETVI ([6]; Rate 63 g ai/ha): 100 | Post-emerge Herbicidal Activity, phytotoxicity rating SETVI ([6]; Rate 250 g ai/ha): 100 | Post-emerge Herbicidal Activity CHEAL (phytotoxicity rating) ([7]; 63 g ai/ha): 70 | Post-emerge Herbicidal Activity CHEAL (phytotoxicity rating) ([7]; 250 g ai/ha): 99 | Post-emerge Herbicidal Activity, phytotoxicity rating CHEAL ([7]; Rate 63 g ai/ha): 100 | Post-emerge Herbicidal Activity, phytotoxicity rating CHEAL ([7]; Rate 250 g ai/ha): 100 | Post-emerge Herbicidal Activity ABUTH (phytotoxicity rating) ([8]; 63 g ai/ha): 100 | Post-emerge Herbicidal Activity ABUTH (phytotoxicity rating) ([8]; 250 g ai/ha): 100 | Post-emerge Herbicidal Activity, phytotoxicity rating ABUTH ([8]; Rate 63 g ai/ha): 100 | Post-emerge Herbicidal Activity, phytotoxicity rating ABUTH ([8]; Rate 250 g ai/ha): 100 | Post-emerge Herbicidal Activity, phytotoxicity rating SORHA ([9]; Rate 63 g ai/ha): 30 | Post-emerge Herbicidal Activity, phytotoxicity rating SORHA ([9]; Rate 250 g ai/ha): 80 | Post-emerge Herbicidal Activity AMBEL (phytotoxicity rating) ([10]; 63 g ai/ha): 30 | Post-emerge Herbicidal Activity AMBEL (phytotoxicity rating) ([10]; 250 g ai/ha): 40 | Pre-emerge phytotoxicity rating, crop damage CORN ([11]; 63 g ai/ha): 0 | Pre-emerge phytotoxicity rating, crop damage CORN ([11]; 250 g ai/ha): 0 | Pre-emerge phytotoxicity rating, crop damage RICE ([12]; 63 g ai/ha): 0 | Pre-emerge phytotoxicity rating, crop damage RICE ([12]; 250 g ai/ha): 50 | Post-emerge Herbicidal Activity CORN (crop damage rating) ([13]; 63 g ai/ha): 99 | Post-emerge Herbicidal Activity CORN (crop damage rating) ([13]; 250 g ai/ha): 100 | Post-emerge phytotoxicity rating CORN (crop damage) ([13]; Rate 63 g ai/ha): 100 | Post-emerge phytotoxicity rating CORN (crop damage) ([13]; Rate 250 g ai/ha): 100 | Post-emerge Herbicidal Activity RICE (crop damage rating) ([14]; 63 g ai/ha): 5 | Post-emerge Herbicidal Activity RICE (crop damage rating) ([14]; 250 g ai/ha): 0 | Post-emerge phytotoxicity rating RICE (crop damage) ([14]; Rate 63 g ai/ha): 90 | Post-emerge phytotoxicity rating RICE (crop damage) ([14]; Rate 250 g ai/ha): 100 | Pre-emerge herbicidal activity, phytotoxicity rating IPOHE ([15]; 63 g ai/ha): 0 | Pre-emerge herbicidal activity, phytotoxicity rating IPOHE ([15]; 250 g ai/ha): 0 | Pre-emerge herbicidal activity, phytotoxicity rating CASOB ([16]; 63 g ai/ha): 0 | Pre-emerge herbicidal activity, phytotoxicity rating CASOB ([16]; 250 g ai/ha): 0 | Pre-emerge herbicidal activity, phytotoxicity rating DIGSA ([17]; 63 g ai/ha): 0 | Pre-emerge herbicidal activity, phytotoxicity rating DIGSA ([17]; 250 g ai/ha): 90 | Pre-emerge herbicidal activity, phytotoxicity rating ECHCG ([18]; 63 g ai/ha): 0 | Pre-emerge herbicidal activity, phytotoxicity rating ECHCG ([18]; 250 g ai/ha): 50 | Pre-emerge herbicidal activity, phytotoxicity rating SETVI ([19]; 63 g ai/ha): 0 | Pre-emerge herbicidal activity, phytotoxicity rating SETVI ([19]; 250 g ai/ha): 70 | Pre-emerge herbicidal activity, phytotoxicity rating CHEAL ([20]; 63 g ai/ha): 70 | Pre-emerge herbicidal activity, phytotoxicity rating CHEAL ([20]; 250 g ai/ha): 100 | Pre-emerge herbicidal activity, phytotoxicity rating ABUTH ([21]; 63 g ai/ha): 80 | Pre-emerge herbicidal activity, phytotoxicity rating ABUTH ([21]; 250 g ai/ha): 100 | Pre-emerge herbicidal activity, phytotoxicity rating SORHA ([22]; 63 g ai/ha): 0 | Pre-emerge herbicidal activity, phytotoxicity rating SORHA ([22]; 250 g ai/ha): 0 | Pre-emerge herbicidal activity, phytotoxicity rating AMARE ([23]; 63 g ai/ha): 70 | Pre-emerge herbicidal activity, phytotoxicity rating AMARE ([23]; 250 g ai/ha): 100
